# In US9687529B2, “Method of controlling coagulation” (Duke University, priority 2011, dated 2017):
# Values joined by “and” are separate entries in the source; they are usually repeats but may differ in a detail not shown here. Equal values may be shown once. “Also recorded” adds a separate entry of the source.
# Legend:
# [1] = system: clot formation in whole blood; assay: Thromboelastography (TEG), whole blood stimulated with tissue factor; type: cell-based, human
# Method: (§1) Blood was drawn from healthy, consented volunteers under a Duke University Institutional Review Board approved protocol and anticoagulated with 3.2% sodium citrate. Whole blood (320 μL) was mixed with anticoagulant (heparin or aptamers) (10 μL) and kaolin (Haemonetics, Niles, Ill.) (10 μL) or CAT PRP reagent (Diagnostica Stago, 0.33 ρM TF final) (10 μL) was added to stimulate clotting. CaCl2 (20 μL) was immediately added to overcome the citrate, the mixture was added to a plain disposable plastic TEG cup (Haemonetics), and the assay was run according to the manufacturer's instructions. Clot formation at 37° C. was measured with a Thromboelastograph Analyzer (Haemonetics, Niles, Ill.) until a stable clot was formed (i.e., a maximum amplitude was reached) or for three hours with the aptamer combinations. The time lag time, α-angle, and maximum amplitude were automatically calculated by the TEG® Analytical Software version 4.2.3 (Haemonetics).
# Because kaolin stimulates blood via the intrinsic pathway, it is unlikely that 7S-1 (FVIIa aptamer) would impair clot formation with this type of stimulation; thus, this aptamer was tested in a modified TEG with TF stimulation. CAT platelet rich plasma (PRP) reagent (TF) was diluted to a final concentration of 0.33 ρM TF to stimulate clotting.
# [2] = system: clot formation in whole blood; assay: Thromboelastography (TEG), whole blood stimulated with kaolin; type: cell-based, human
# Method: as §1
# Although the aPTT, PT, and CAT assays provide basic information about dose-dependent anticoagulation, these assays are performed in an environment that lacks platelets. Platelets play a crucial role in clot formation by providing a membrane surface upon which the clotting factors assemble, by aggregating and becoming physically incorporated into the blood clot, and by releasing internal stores of agonists that amplify coagulation (Monroe et al, Arterioscler Thromb Vasc Biol 22:138 1-9 (2002)). Therefore, a study was made of aptamer anticoagulation with thromboelastography (TEG), which provides real-time information about the kinetics of clot formation in whole blood (Reikvam et al, Transfus Apher Sci; 40:119-23 (2009). The TEG assay uses mechanical motion to quantify the physical properties of clot formation, including the lag time (the time until clot formation), the α-angle (the rate of clot formation), and the maximum amplitude (the mechanical strength of the clot formed).
# [3] = system: thrombin generation in normal human platelet poor plasma; assay: Calibrated automated thrombography (CAT); type: biochemical
# Method: Normal human platelet poor plasma (80 μL) was mixed with aptamer(s) (10 μL) in an Immunolon 2HB U Bottom Mictrotiter 96-well plate (Thermo Labsystems, Franklin, Mass.) and incubated at 37° C. for 5 min. PPP reagent (Diagnostica Stago, Parsippany, N.J.) (either 1 ρM or 5 ρM TF, 20 μL, Diagnostica Stago) was added, and the mixture was incubated at 37° C. for another 5 min. FluCa (Diagnostica Stago) (10 μL) was added to initiate the assay and thrombin generation was measured for 60 minutes at 37° C. with a Fluoroskan Ascent fluorometer (ThermoLabsystem, Helsinki, Finland) according to the manufacturer's instructions. The amount of thrombin generated was quantified by comparison to an assay with thrombin calibrator reagent (Diagnostica Stago) that has a known activity toward the fluorogenic substrate. The lag time, peak amount of thrombin generated, and endogenous thrombin potential (ETP) were automatically calculated by the Thrombinoscope software (Thrombinoscope BV, the Netherlands).
# Thrombin is the final protease formed in the coagulation cascade, and the rate of thrombin generation and the total amount of thrombin generated is associated with blood clot formation and stability (Wolberg, Blood Rev 21:131-42 (2007)). To gain more information about the impact of aptamer anticoagulation on the kinetics of thrombin generation, the individual aptamers were analyzed with calibrated automated thrombography (CAT). The CAT assay measures real-time thrombin generation in plasma by monitoring cleavage of a thrombin-specific fluorogenic substrate in response to TF stimulation (Heruker et al, Pathophysiol Haemost Thromb 33: 4-15 (2003)). The parameters of thrombin generation analyzed include: the lag time (time until thrombin generation begins), the peak (the maximal amount of thrombin generated at a given time) and the endogenous thrombin potential (ETP, the total amount of thrombin generated). Similar to the aPTT and PT clotting assays, all of the individual aptamers dose-dependently impacted the various parameters of thrombin generation (FIG. 21 and Table 1). […] 9.3T minorly impacted all parameters of thrombin generation with the high TF reagent; however, because high concentrations of TF may bypass FIX activity by directly generating FXa, the manufacturer recommends low concentrations of TF for analyzing FIX deficient (i.e, Hemophilia B) plasma in the CAT.
substance,measurement,setting,value
"9.3T: FIXa aptamer, 2'-fluoropyrimidine modified RNA, SEQ ID NO: 1 (AUGGGGACUAUACCGCGUAAUGCUGCCUCCCCAU; 2'-fluoro at CU, RNA at AG, backbone not given here) [Aptamer 9.3T]",Angle,[1]; RNA 1.00 μM,66.3 deg and 66.3 ± 1.3 deg
same,Lag-time,[1]; RNA 1.00 μM,4.5 min and 4.5 ± 0.5 min
same,Max. Amplitude,[1]; RNA 1.00 μM,69.1 mm and 69.1 ± 1.5 mm
same,Angle,[2]; RNA 0.5 μM,41.4 ± 0.5 deg
same,Lag-time,[2]; RNA 0.5 μM,22.8 ± 2.0 min
same,Max. Amplitude,[2]; RNA 0.5 μM,55.4 ± 3.2 mm
same,Angle,[2]; RNA 1.0 μM,37.6 deg and 37.6 ± 7.1 deg
same,Lag-time,[2]; RNA 1.0 μM,25.5 min and 25.5 ± 1.8 min
same,Max. Amplitude,[2]; RNA 1.0 μM,55.4 mm and 55.4 ± 2.6 mm
same,Angle,[2]; RNA 2.0 μM,36.9 ± 2.9 deg
same,Lag-time,[2]; RNA 2.0 μM,29.9 ± 1.4 min
same,Max. Amplitude,[2]; RNA 2.0 μM,55.9 ± 3.4 mm
same,ETP,"[3]; RNA 15 nM, TF 1 ρM",1463.50 ± 19.59 nM·min
same,Lag-time,"[3]; RNA 15 nM, TF 1 ρM",3.06 ± 0.15 min
same,Peak,"[3]; RNA 15 nM, TF 1 ρM",195.04 ± 6.91 nM
same,TTP,"[3]; RNA 15 nM, TF 1 ρM",7.34 ± 0.26 min
same,ETP,"[3]; RNA 15 nM, TF 5 ρM",1812.50 ± 81.01 nM·min
same,Lag-time,"[3]; RNA 15 nM, TF 5 ρM",1.72 ± 0.20 min
same,Peak,"[3]; RNA 15 nM, TF 5 ρM",341.90 ± 12.54 nM
same,TTP,"[3]; RNA 15 nM, TF 5 ρM",4.23 ± 0.24 min
same,ETP,"[3]; RNA 30 nM, TF 1 ρM",1350.17 ± 28.02 nM·min
same,Lag-time,"[3]; RNA 30 nM, TF 1 ρM",3.00 ± 0.10 min
same,Peak,"[3]; RNA 30 nM, TF 1 ρM",147.88 ± 4.28 nM
same,TTP,"[3]; RNA 30 nM, TF 1 ρM",8.12 ± 0.34 min
same,ETP,"[3]; RNA 30 nM, TF 5 ρM",1723.67 ± 57.51 nM·min
same,Lag-time,"[3]; RNA 30 nM, TF 5 ρM",1.56 ± 0.20 min
same,Peak,"[3]; RNA 30 nM, TF 5 ρM",316.98 ± 3.28 nM
same,TTP,"[3]; RNA 30 nM, TF 5 ρM",4.28 ± 0.40 min
same,ETP,"[3]; RNA 60 nM, TF 1 ρM",1261.50 ± 64.85 nM·min
same,Lag-time,"[3]; RNA 60 nM, TF 1 ρM",2.89 ± 0.15 min
same,Peak,"[3]; RNA 60 nM, TF 1 ρM",110.65 ± 6.70 nM
same,TTP,"[3]; RNA 60 nM, TF 1 ρM",8.95 ± 0.15 min
same,ETP,"[3]; RNA 60 nM, TF 5 ρM",1741.10 ± 78.84 nM·min
same,Lag-time,"[3]; RNA 60 nM, TF 5 ρM",1.70 ± 0.11 min
same,Peak,"[3]; RNA 60 nM, TF 5 ρM",283.76 ± 3.20 nM
same,TTP,"[3]; RNA 60 nM, TF 5 ρM",4.90 ± 0.31 min
same,ETP,"[3]; RNA 120 nM, TF 1 ρM",1125.00 ± 31.79 nM·min
same,Lag-time,"[3]; RNA 120 nM, TF 1 ρM",2.72 ± 0.05 min
same,Peak,"[3]; RNA 120 nM, TF 1 ρM",86.13 ± 3.02 nM
same,TTP,"[3]; RNA 120 nM, TF 1 ρM",9.34 ± 0.19 min
same,ETP,"[3]; RNA 120 nM, TF 5 ρM",1674.50 ± 56.02 nM·min
same,Lag-time,"[3]; RNA 120 nM, TF 5 ρM",1.60 ± 0.15 min
same,Peak,"[3]; RNA 120 nM, TF 5 ρM",272.90 ± 9.97 nM
same,TTP,"[3]; RNA 120 nM, TF 5 ρM",4.74 ± 0.37 min
"11F7T: FXa aptamer, 2'-fluoropyrimidine modified RNA, SEQ ID NO: 2 (GAGAGCCCCAGCGAGAUAAUACUUGGCCCCGCUCUU; 2'-fluoro at CU, RNA at AG, backbone not given here) [Aptamer 11F7T]",Angle,[1]; RNA 2.00 μM,21.4 deg and 21.4 ± 7.3 deg
same,Lag-time,[1]; RNA 2.00 μM,51.1 min and 51.1 ± 12.2 min
same,Max. Amplitude,[1]; RNA 2.00 μM,51.1 mm and 51.1 ± 1.6 mm
same,Angle,[2]; RNA 0.5 μM,40.3 ± 1.4 deg
same,Lag-time,[2]; RNA 0.5 μM,15.6 ± 0.8 min
same,Max. Amplitude,[2]; RNA 0.5 μM,52.4 ± 1.6 mm
same,Angle,[2]; RNA 1.0 μM,28.7 ± 5.0 deg
same,Lag-time,[2]; RNA 1.0 μM,20.6 ± 3.0 min
same,Max. Amplitude,[2]; RNA 1.0 μM,48.2 ± 3.7 mm
same,Angle,[2]; RNA 2.0 μM,18 deg and 18.0 ± 5.9 deg
same,Lag-time,[2]; RNA 2.0 μM,39.6 min and 39.6 ± 9.1 min
same,Max. Amplitude,[2]; RNA 2.0 μM,39.6 mm and 39.6 ± 4.4 mm
same,ETP,"[3]; RNA 125 nM, TF 5 ρM",1612.90 ± 142.40 nM·min
same,Lag-time,"[3]; RNA 125 nM, TF 5 ρM",3.00 ± 0.22 min
same,Peak,"[3]; RNA 125 nM, TF 5 ρM",227.75 ± 43.47 nM
same,TTP,"[3]; RNA 125 nM, TF 5 ρM",7.24 ± 0.77 min
same,ETP,"[3]; RNA 250 nM, TF 5 ρM",1220.50 ± 182.02 nM·min
same,Lag-time,"[3]; RNA 250 nM, TF 5 ρM",4.94 ± 0.38 min
same,Peak,"[3]; RNA 250 nM, TF 5 ρM",120.68 ± 21.79 nM
same,TTP,"[3]; RNA 250 nM, TF 5 ρM",11.70 ± 1.13 min
same,ETP,"[3]; RNA 500 nM, TF 5 ρM",738.60 ± 202.92 nM·min
same,Lag-time,"[3]; RNA 500 nM, TF 5 ρM",7.97 ± 0.93 min
same,Peak,"[3]; RNA 500 nM, TF 5 ρM",65.56 ± 14.57 nM
same,TTP,"[3]; RNA 500 nM, TF 5 ρM",16.47 ± 1.83 min
same,ETP,"[3]; RNA 1,000 nM, TF 5 ρM",459.40 ± 199.39 nM·min
same,Lag-time,"[3]; RNA 1,000 nM, TF 5 ρM",9.50 ± 1.00 min
same,Peak,"[3]; RNA 1,000 nM, TF 5 ρM",36.84 ± 14.42 nM
same,TTP,"[3]; RNA 1,000 nM, TF 5 ρM",20.10 ± 2.96 min
"R9D-14T: prothrombin/thrombin aptamer, 58-base truncation of RNA9D-14, SEQ ID NO: 3 (GGCGGTCGATCACACAGTTCAAACGTAATAAGCCAATGTACGAGGCAGACGACTCGCC; 2'-fluoro at CT, RNA at AG, backbone and T or U not given here) [Aptamer R9D-14T]",Angle,[1]; RNA 5.00 μM,15.2 deg and 15.2 ± 2.5 deg
same,Lag-time,[1]; RNA 5.00 μM,39.4 min and 39.4 ± 5.0 min
same,Max. Amplitude,[1]; RNA 5.00 μM,36.8 mm and 36.8 ± 1.4 mm
same,Angle,[2]; RNA 1.25 μM,60.4 ± 2.4 deg
same,Lag-time,[2]; RNA 1.25 μM,7.1 ± 1.4 min
same,Max. Amplitude,[2]; RNA 1.25 μM,62.0 ± 3.0 mm
same,Angle,[2]; RNA 2.0 μM,48.1 ± 9.7 deg
same,Lag-time,[2]; RNA 2.0 μM,8.3 ± 2.0 min
same,Max. Amplitude,[2]; RNA 2.0 μM,56.0 ± 6.3 mm
same,Angle,[2]; RNA 5.0 μM,30 deg and 30.0 ± 5.7 deg
same,Lag-time,[2]; RNA 5.0 μM,21.5 min and 21.5 ± 4.9 min
same,Max. Amplitude,[2]; RNA 5.0 μM,49.6 mm and 49.6 ± 3.6 mm
same,ETP,"[3]; RNA 625 nM, TF 5 ρM",1492.50 ± 54.94 nM·min
same,Lag-time,"[3]; RNA 625 nM, TF 5 ρM",1.55 ± 0.08 min
same,Peak,"[3]; RNA 625 nM, TF 5 ρM",314.82 ± 25.02 nM
same,TTP,"[3]; RNA 625 nM, TF 5 ρM",3.88 ± 0.18 min
same,ETP,"[3]; RNA 1,250 nM, TF 5 ρM",1293.00 ± 67.66 nM·min
same,Lag-time,"[3]; RNA 1,250 nM, TF 5 ρM",1.55 ± 0.08 min
same,Peak,"[3]; RNA 1,250 nM, TF 5 ρM",269.45 ± 13.17 nM
same,TTP,"[3]; RNA 1,250 nM, TF 5 ρM",3.67 ± 0.18 min
same,ETP,"[3]; RNA 2,500 nM, TF 5 ρM",1170.90 ± 90.47 nM·min
same,Lag-time,"[3]; RNA 2,500 nM, TF 5 ρM",4.37 ± 0.71 min
same,Peak,"[3]; RNA 2,500 nM, TF 5 ρM",192.66 ± 31.04 nM
same,TTP,"[3]; RNA 2,500 nM, TF 5 ρM",7.64 ± 1.31 min
same,thrombin generation (in words),"[3]; RNA 5,000 nM (5 μM), TF 5 ρM",completely inhibited thrombin generation; also recorded: no thrombin generation detected
